# Laboratory results as given in patent publication US12172996B2, “Methyl {4,6-diamino-2-[5-fluoro-1-(2-fluorobenzyl)-1H-pyrazolo[3,4-b]pyridin-3-yl]pyrimidin-5-yl}carbamate active compound product having improved properties, production and formulation thereof” (Adverio Pharma GmbH, priority 2018, dated 2024).
# How the values were obtained:
# [1] = Determination of particle size distribution (Sympatec Helos, wet dispersion unit); assay type: physicochemical; details: 5 min ultrasound; for X10%: diameter below which 10% of the particles lie; for X50%: diameter below which 50% of the particles lie; for X90%: diameter below which 90% of the particles lie
# Protocol: Determination of particle size distribution. Determination of particle size distribution is performed using a Sympatec Helos instrument fitted with a wet dispersion unit. To produce the dispersion medium 10-25 mg of the active compound product of the compound of formula (I) (micronized or non-micronized) are predispersed with 10 ml of water/1 drop of Tween 20 in a small vessel. The dispersion is stirred but not shaken to avoid foam formation. The dispersed material is subsequently added to the deionized water (approx. 0.51) in the wet dispersion unit, treated with ultrasound for 5 minutes and measured (10 seconds). The sound exposure time is 5 minutes, a 50 mm aperture is employed (R2, or if measurement range exceeded, R3), the optical density of the suspension is 10-25%, the stirring/pumping speed is set to 50% (40-60%) and evaluation is carried out after 5 minutes of ultrasound.
# The three columns X10%, X50% and X90% indicate the diameter below which 10%, 50% and 90% respectively of the particles of the analysed active compound product lie.
# [2] = ATR IR of the modification after micronization; assay type: physicochemical
# Source text: 16.1 kg of methyl {4,6-diamino-2-[5-fluoro-1-(2-fluorobenzyl)-1H-pyrazolo[3,4-b]pyridin-3-yl]pyrimidin-5-yl}carbamate of formula (I) in the crystalline form of modification I, produced according to example 13, method E of WO 2013/076168, were micronized to afford 15.2 kg. The yield was 94.4%. […] The ATR IR diagram corresponds to the IR spectrum of the compound of formula (I) in modification I according to FIG. 1 of WO 2013/076168.
# 39.0 kg of methyl {4,6-diamino-2-[5-fluoro-1-(2-fluorobenzyl)-1H-pyrazolo[3,4-b]pyridin-3-yl]pyrimidin-5-yl}carbamate of formula (I) in the crystalline form of modification I, produced by the process according to the invention of example 4, were micronized to afford 36.9 kg. The yield was 94.6%.
# The ATR IR diagram corresponds to the IR spectrum of the compound of formula (I) in modification I according to FIG. 1 of WO 2013/076168.
smiles,measurement,setting,value
COC(=O)Nc1c(N)nc(-c2nn(Cc3ccccc3F)c3ncc(F)cc23)nc1N [Batch 2-1],X10%,[1]; listed as 2-1,1.0 μm
same,X50%,[1]; listed as 2-1,11.1 μm
same,X90%,[1]; listed as 2-1,43.0 μm
"COC(=O)Nc1c(N)nc(-c2nn(Cc3ccccc3F)c3ncc(F)cc23)nc1N [compound of formula (I), Methyl {4,6-diamino-2-[5-fluoro-1-(2-fluorobenzyl)-1H-pyrazolo[3,4-b]pyridin-3-yl]pyrimidin-5-yl}carbamate]",Modification after micronization,"[2]; produced according to example 13, method E of WO 2013/076168, 16.1 kg micronized",remained in modification I even after micronization
same,Modification after micronization,"[2]; produced by the process according to the invention of example 4, 39.0 kg micronized",remained in modification I even after micronization
COC(=O)Nc1c(N)nc(-c2nn(Cc3ccccc3F)c3ncc(F)cc23)nc1N [Batch 2-6],X10%,[1]; listed as 2-6,1.0 μm
same,X50%,[1]; listed as 2-6,9.0 μm
same,X90%,[1]; listed as 2-6,34.4 μm
COC(=O)Nc1c(N)nc(-c2nn(Cc3ccccc3F)c3ncc(F)cc23)nc1N [Batch 2-7],X10%,[1]; listed as 2-7,0.6 μm
same,X50%,[1]; listed as 2-7,4.1 μm
same,X90%,[1]; listed as 2-7,23.6 μm
COC(=O)Nc1c(N)nc(-c2nn(Cc3ccccc3F)c3ncc(F)cc23)nc1N [Batch 2-3],X10%,[1]; listed as 2-3,1.0 μm
same,X50%,[1]; listed as 2-3,4.3 μm
same,X90%,[1]; listed as 2-3,27.4 μm
COC(=O)Nc1c(N)nc(-c2nn(Cc3ccccc3F)c3ncc(F)cc23)nc1N [Batch 2-4],X10%,[1]; listed as 2-4,0.5 μm
same,X50%,[1]; listed as 2-4,1.8 μm
same,X90%,[1]; listed as 2-4,9.5 μm
COC(=O)Nc1c(N)nc(-c2nn(Cc3ccccc3F)c3ncc(F)cc23)nc1N [Batch 2-5],X10%,[1]; listed as 2-5,1.4 μm
same,X50%,[1]; listed as 2-5,18.7 μm
same,X90%,[1]; listed as 2-5,50.6 μm
COC(=O)Nc1c(N)nc(-c2nn(Cc3ccccc3F)c3ncc(F)cc23)nc1N [Batch 2-8],X10%,[1]; listed as 2-8,0.6 μm
same,X50%,[1]; listed as 2-8,2.6 μm
same,X90%,[1]; listed as 2-8,13.6 μm
COC(=O)Nc1c(N)nc(-c2nn(Cc3ccccc3F)c3ncc(F)cc23)nc1N [Batch 2-2],X10%,[1]; listed as 2-2,0.9 μm
same,X50%,[1]; listed as 2-2,4.2 μm
same,X90%,[1]; listed as 2-2,31.9 μm
